In PubChem BioAssay AID256 (DTP/NCI, 2004):
Where “and” joins values, the source holds several entries; their conditions need not be identical. Equal values may be shown once. Toxic doses and inconclusive results are not listed. How the source made its calls: active means survival T/C of 150% or more; inactive means T/C below 125% in these data.

Test system: CD2F1 mice, L1210 leukemia ip, survival T/C
Experiment: NCI In Vivo Anticancer Drug Screen. Data for tumor model L1210 Leukemia (intraperitoneal) in CD2F1 (CDF1) mice
Settings: endpoint: mean survival time, higher = longer survival
In short: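 In this screen, transplantable tumors were grown in mice given either the compound or its vehicle. Results were expressed as the treated measurement relative to the control measurement.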

[1] = dose: 50.0 mg/kg/injection, schedule: Q01DX009 (ip), vehicle: saline
[2] = dose: 100.0 mg/kg/injection, schedule: Q01DX009 (ip), vehicle: saline with Tween-80
[3] = dose: 100.0 mg/kg/injection, schedule: Q01DX009 (ip), vehicle: saline
[4] = dose: 200.0 mg/kg/injection, schedule: Q01DX009 (ip), vehicle: saline with Tween-80
[5] = dose: 200.0 mg/kg/injection, schedule: Q01DX009 (ip), vehicle: saline
[6] = dose: 400.0 mg/kg/injection, schedule: Q01DX009 (ip), vehicle: saline with Tween-80

Measured: T/C

CCCN1COC(OCC)C(C)(C)C1 (stereo not drawn)
inactive: dose: 12.5 mg/kg/injection, schedule: Q01DX009 (ip), vehicle: saline with Tween-80 112 % of control | dose: 12.5 mg/kg/injection, schedule: Q01DX009 (ip), vehicle: saline 91 % of control | dose: 25.0 mg/kg/injection, schedule: Q01DX009 (ip), vehicle: saline with Tween-80 100 % of control | dose: 25.0 mg/kg/injection, schedule: Q01DX009 (ip), vehicle: saline 100 % of control | dose: 50.0 mg/kg/injection, schedule: Q01DX009 (ip), vehicle: saline with Tween-80 107 % of control | [1] 103 % of control | [2] 114 % of control | [3] 97 % of control | [4] 106 % of control | [5] 109 % of control

CS/C(N)=N\C(=S)Nc1ccccc1
inactive: [2] 103 % of control | [4] 103 % of control | [6] 101 % of control

NC(CSC(c1ccccc1)(c1ccccc1)c1ccc(-c2ccccc2)cc1)C(=O)O (stereo not drawn)
inactive: [1] 111 % of control | [3] 108 % of control | [5] 105 % of control | dose: 400.0 mg/kg/injection, schedule: Q01DX009 (ip), vehicle: saline 100 % of control

CC(C)(C)CC(C)(C)SSc1n[nH]c(=S)s1
inactive: dose: 2.5 mg/kg/injection, schedule: Q04DX003 (ip), vehicle: Klucel (hydroxypropylcellulose) (HPC) 102 % of control | dose: 5.0 mg/kg/injection, schedule: Q04DX003 (ip), vehicle: Klucel (hydroxypropylcellulose) (HPC) 101 % of control | dose: 10.0 mg/kg/injection, schedule: Q04DX003 (ip), vehicle: Klucel (hydroxypropylcellulose) (HPC) 98 % of control and 101 % of control

Clc1ccc2c(c1)Cc1cc(N(CCBr)CCBr)ccc1-2
inactive: [2] 104 % of control | [4] 106 % of control | [6] 110 % of control
